Laboratory results published in the PolyMetriX glass transition set.
± gives the standard deviation of the reports.

Tests used:
[1] = not given; remark: listed apart in the source

Structure (SMILES) | glass transition temperature | glass transition temperature [1]
*c1ccc2c(c1)C(=O)N(c1ccc(Oc3ccc(P(=O)(c4ccccc4)c4ccc(Oc5cccc(N6C(=O)c7ccc(C(*)(C(F)(F)F)C(F)(F)F)cc7C6=O)c5)cc4)cc3)cc1)C2=O (repeat unit) | 220.00 °C | –
*Oc1cccc(S(=O)(=O)c2ccc(Oc3ccc4c(c3)C(=O)N(c3ccc(Oc5ccc(N6C(=O)c7ccc(*)cc7C6=O)cc5)cc3)C4=O)cc2)c1 (repeat unit) | 260.00 °C | –
*Oc1cccc(C(=O)c2ccc(Oc3cccc4c3C(=O)N(c3cccc(N5C(=O)c6cccc(*)c6C5=O)c3)C4=O)cc2)c1 (repeat unit) | 248.00 °C | –
*c1ccc2c(c1)C(=O)N(c1ccc(-c3ccc(N4C(=O)c5ccc(C(*)(C(F)(F)F)C(F)(F)F)cc5C4=O)cc3-c3cccc(C(F)(F)F)c3)c(-c3cccc(C(F)(F)F)c3)c1)C2=O (repeat unit) | 278.00 °C | –
*C(=O)c1ccc2c(c1)C(=O)N(c1ccc(C(=O)Oc3ccc4ccccc4c3-c3c(OC(=O)c4ccc(N5C(=O)c6ccc(*)cc6C5=O)cc4)ccc4ccccc34)cc1)C2=O (repeat unit) | 273.50 °C | –
*c1ccc2oc(-c3ccc(-c4nc5cc(C(*)(c6ccccc6)C(F)(F)F)ccc5o4)cc3)nc2c1 (repeat unit) | – | 369.00 °C
*c1ccc2c(c1)C(=O)N(c1ccc(N3C(=O)c4ccc(-c5c(-c6ccccc6)c(-c6ccccc6)c(-c6ccc(Oc7ccc(-c8c(-c9ccccc9)c(-c9ccccc9)c(*)c(-c9ccccc9)c8-c8ccccc8)cc7)cc6)c(-c6ccccc6)c5-c5ccccc5)cc4C3=O)cc1)C2=O (repeat unit) | – | 353.00 °C
*CC(=O)NCCCCCCNC(=O)CS* (repeat unit) | – | -7.00 °C
*CC(*)(CF)C(=O)OCC (repeat unit) | – | 43.00 °C
*Oc1ccc(NC(=O)c2ccc(Oc3ccc(C(C)(C)c4cccc(C(C)(C)c5ccc(Oc6ccc(C(=O)Nc7ccc(Oc8ccc(-c9ccc(*)cc9)cc8)cc7)cc6)cc5)c4)cc3)cc2)cc1 (repeat unit) | – | 167.00 °C
*CC[Si](C)(C)O[Si]1(*)O[Si](C)(C)O[Si](C)(C)O1 (repeat unit) | – | -64.00 °C
*c1ccc(Oc2ccc(-c3ccc(Oc4ccc(-c5nnc(*)c6c(-c7ccccc7)c(-c7ccc8ccccc8c7)c(-c7ccc8ccccc8c7)c(-c7ccccc7)c56)cc4)cc3)cc2)cc1 (repeat unit) | – | 334.00 °C
*OP(=O)(Oc1ccccc1)Oc1c(Br)cc(C(c2cc(Br)c(*)c(Br)c2)(C(F)(F)F)C(F)(F)F)cc1Br (repeat unit) | – | 140.00 °C
*CCCCCCOC(=O)Nc1ccc(C)c(NC(=O)O*)c1 (repeat unit) | – | 32.00 °C
*CC(*)(CC(=O)OCCOCCOCCOC)C(=O)OCCOCCOCCOC (repeat unit) | – | -19.00 °C
*c1cccc(P(=O)(c2ccc(C(F)(F)F)cc2)c2cccc(N3C(=O)c4ccc(Oc5ccc6c(c5)C(=O)N(*)C6=O)cc4C3=O)c2)c1 (repeat unit) | – | 248.00 °C
*/C=C/c1ccc(*)c(-c2cc(OCCC(C)C)c(OCCC(C)C)cc2-c2ccccc2)c1 (repeat unit) | – | 164.00 °C
*CC(*)(C)C(=O)OCCCCCOc1ccc2cc(C(=O)Oc3ccccc3)ccc2c1 (repeat unit) | – | 48.00 °C
*CC(=O)Nc1ccc(C2(c3ccc(NC(=O)Cn4c(=O)c5cc6c(=O)n(*)c(=O)c6cc5c4=O)cc3)c3ccccc3-c3ccccc32)cc1 (repeat unit) | – | 350.00 °C
*OC(COC(=O)c1ccc(C(*)=O)c(OC)c1)COc1ccc(/N=N/c2ccc(C#N)cc2)cc1 (repeat unit) | – | 120.00 °C
*Oc1ccc(-c2ccc(OC(=O)c3cc(OCCCCCC)c(C(*)=O)cc3OCCCCCC)cc2)cc1 (repeat unit) | – | 113.00 °C

Structure (SMILES) | glass transition temperature | glass transition temperature [1]
*C(=S)Nc1ccc(Oc2ccc(NC(=S)N3C(=O)c4ccc(C(c5ccc6c(c5)C(=O)N(*)C6=O)(C(F)(F)F)C(F)(F)F)cc4C3=O)cc2)cc1 (repeat unit) | – | 260.00 °C
*CC(*)c1ccc2c(c1)OCO2 (repeat unit) | – | 138.00 °C
*NC(=O)Nc1ccc(Cc2ccc(NC(=O)Nc3cccc(*)n3)cc2)cc1 (repeat unit) | – | 206.50 °C
*CC(*)(C)C(=O)OC12CC3CC(CC(C3)C1)C2 (repeat unit) | – | 183.00 °C
*c1cc(Br)c(-c2c(Br)cc(N3C(=O)c4ccc(-c5ccc6c(c5)C(=O)N(*)C6=O)cc4C3=O)cc2C(=O)OCCCCCCCCCCCC)c(C(=O)OCCCCCCCCCCCC)c1 (repeat unit) | – | 108.00 °C
*CNC(=O)OCC(OC(=O)NCc1ccc(C(CCC)c2ccc(*)o2)o1)c1ccco1 (repeat unit) | – | 43.00 °C
*C(=O)c1cccc(C(=O)c2ccc3c(c2)C(=O)N(c2ccc(Oc4ccc(N5C(=O)c6ccc(*)cc6C5=O)cc4)cc2)C3=O)c1 (repeat unit) | – | 244.00 °C
*CC(*)(CC(=O)Oc1ccc(OC)cc1)C(=O)Oc1ccc(OC)cc1 (repeat unit) | – | 119.50 °C
*CC/C=C(/*)C (repeat unit) [Polyisoprene (cis)] | – | -67.00 ± 7 °C
*CC(*)OC(=O)OCC(Cl)(Cl)Cl (repeat unit) | – | 74.00 °C
*CC(*)OC(=O)c1cccnc1 (repeat unit) | – | 86.50 °C
*Oc1ccc(C2(c3ccc(Oc4ccc5c(=O)n6c7cc(Oc8ccc9c(c8)nc8c%10ccc(*)c%11cccc(c(=O)n98)c%11%10)ccc7nc6c6cccc4c56)cc3)c3ccccc3-c3ccccc32)cc1 (repeat unit) | – | 396.00 °C
*O[Si](*)(C)CCC(F)(F)C(F)(F)C(F)(F)C(F)(F)F (repeat unit) | – | -75.00 °C
*Oc1ccc(S(=O)(=O)c2ccc(*)cc2)c2ccccc12 (repeat unit) | – | 238.00 °C
*Oc1cccc2cc(OC(=O)c3ccc(Oc4ccc(C(*)=O)cc4)cc3)ccc12 (repeat unit) | – | 179.00 °C
*N=P(*)(C)CCCC (repeat unit) | – | -51.00 °C
*C(F)(F)C1(F)C(F)(F)C(*)(F)C(F)(F)C(F)(F)C1(F)F (repeat unit) | – | 101.00 °C
*CC#CC#CCOc1cccc(C(=O)OCCN(CCOC(=O)c2cccc(O*)c2)c2ccc(/N=N/c3ccc(C#N)cc3)cc2)c1 (repeat unit) | – | 50.00 °C
*Oc1ccc(S(=O)(=O)c2ccc(Oc3ccc(P(=O)(c4ccccc4)c4ccc(*)cc4)cc3)cc2)cc1 (repeat unit) | – | 231.00 °C
*CCCCCCCCCCOc1c(OC)cc(/C=C/c2ccc(/C=C/c3cc(OC)c(O*)c(OC)c3)cc2)cc1OC (repeat unit) | – | 68.50 °C
*c1sc(*)c(CCCCCCN(CC)c2ccc(/N=N/c3ccc([N+](=O)[O-])cc3)cc2)c1CCCCCC (repeat unit) | – | 17.00 °C

Structure (SMILES) | glass transition temperature | glass transition temperature [1]
*c1ccc(C(c2ccc(N3C(=O)c4ccc(Oc5ccc6ccc(Oc7ccc8c(c7)C(=O)N(*)C8=O)cc6c5)cc4C3=O)cc2)(C(F)(F)F)C(F)(F)F)cc1 (repeat unit) | – | 256.00 °C
*/C=C/c1sc(/C=C/c2ccc3c4ccc(*)cc4n(CC(CC)CCCC)c3c2)c(CC(CC)CCCC)c1CC(CC)CCCC (repeat unit) | – | 60.00 °C
*Oc1ccc(Oc2ccc(OC(=O)c3ccccc3-c3ccccc3C(*)=O)cc2)cc1 (repeat unit) | – | 147.00 °C
*c1ccc(Oc2cccc(-c3cc(-c4ccccc4)cc(-c4cccc(Oc5ccc(N6C(=O)c7ccc(Oc8ccc9c(c8)C(=O)N(*)C9=O)cc7C6=O)cc5)c4)n3)c2)cc1 (repeat unit) | – | 224.00 °C
*Nc1cc(NC(=O)Nc2ccc(Cc3ccc(NC(*)=O)cc3)cc2)cc(C(=O)Nc2ccc3c(c2)C(=O)c2ccccc2C3=O)c1 (repeat unit) | – | 168.00 °C
*Oc1ccc(OC(=O)c2ccc(C(*)=O)cc2Sc2ccc(C)cc2)cc1 (repeat unit) | – | 134.00 °C
*Oc1cccc(Oc2ccc(C(=O)c3ccc(NC(=O)CCCCCCCCC(=O)Nc4ccc(C(=O)c5ccc(*)cc5)cc4)cc3)cc2)c1 (repeat unit) | – | 143.00 °C
*OC(COCCCC)COC(*)=O (repeat unit) | – | -22.00 °C
*Cc1ccc(CNC(=O)CCCCCCCCCCCC(=O)N*)cc1 (repeat unit) | – | 100.00 °C
*C(=O)c1ccc2c(c1)C(=O)N(c1ccc(CP(=O)(OCCCl)OCCCl)c(N3C(=O)c4ccc(*)cc4C3=O)c1)C2=O (repeat unit) | – | 261.00 °C
*C/C=C/COC(=O)C(Cc1ccccc1)NC(=O)/C=C/C(=O)NC(Cc1ccccc1)C(=O)O* (repeat unit) | – | 109.00 °C
*CC1(C)CC(N2C(=O)c3ccc(Oc4ccc5c(c4)C(=O)N(*)C5=O)cc3C2=O)CC(C)(C)C1 (repeat unit) | – | 266.00 °C
*CCCCCCCCCCOc1ccc(/N=C/c2ccc(/C=N/c3ccc(O*)cc3C)cc2)c(C)c1 (repeat unit) | – | 77.60 °C
*CC(*)c1cc(C(F)(F)F)cc(C(F)(F)F)c1 (repeat unit) | – | 116.00 °C
*CC(*)(C)C#N (repeat unit) [Poly(methacrylonitrile)] | – | 101.67 ± 19 °C
*c1ccc(Oc2ccc(C(c3ccccc3)(c3ccccc3)c3ccc(Oc4ccc(-c5nc(*)nc(-c6ccccc6)n5)cc4)cc3)cc2)cc1 (repeat unit) | – | 261.00 °C
*Oc1ccc(C(c2ccccc2)(c2ccccc2)c2ccc(OC(=O)c3cccc(C(*)=O)c3)cc2)cc1 (repeat unit) | – | 229.00 °C
*Oc1ccc(-c2ccc(/N=N/c3ccc(C(*)=O)cc3)cc2)cc1 (repeat unit) | – | 147.00 °C
*NC(CCC(=O)OCc1ccc(C(F)(F)F)cc1)C(*)=O (repeat unit) | – | 26.57 °C
*c1ccc(OCCN(CC)c2ccc(C(C#N)=C(C#N)C#N)cc2)c(-c2cc(-c3ccccc3)c3cc(Oc4ccc5nc(*)cc(-c6ccccc6)c5c4)ccc3n2)c1 (repeat unit) | – | 200.00 °C
